Data as given in the NIST ThermoML archive (doi:10.1016/j.jct.2009.11.014).

Conditions: Liquid; for viscosity: Stony Brook Scientific falling needle HPHTV-100 viscometer; for mass density: vibrating tube

CCn1cc[n+](C)c1.F[B-](F)(F)F [1-ethyl-3-methylimidazolium tetrafluoroborate]
Conditions | mass density [kg/m3] | viscosity [mPa·s]
282.55 K, 100 kPa | – | 67.8
282.55 K, 700 kPa | – | 69.1
282.55 K, 1700 kPa | – | 70.1
282.55 K, 2700 kPa | – | 71.6
282.55 K, 4400 kPa | – | 72.9
282.55 K, 6100 kPa | – | 74.3
282.55 K, 8200 kPa | – | 75.5
282.55 K, 10300 kPa | – | 76.1
282.55 K, 12900 kPa | – | 77.9
282.55 K, 14100 kPa | – | 79.3
283.15 K, 100 kPa | 1297.04 | –
283.15 K, 2000 kPa | 1297.83 | –
283.15 K, 4000 kPa | 1298.68 | –
283.15 K, 6000 kPa | 1299.52 | –
283.15 K, 8000 kPa | 1300.36 | –
283.15 K, 10000 kPa | 1301.22 | –
283.15 K, 12000 kPa | 1302.03 | –
283.15 K, 14000 kPa | 1302.82 | –
283.15 K, 20000 kPa | 1305.3 | –
283.15 K, 30000 kPa | 1309.33 | –
283.15 K, 40000 kPa | 1313.27 | –
283.15 K, 50000 kPa | 1317.06 | –
283.15 K, 60000 kPa | 1320.84 | –
288.15 K, 100 kPa | 1293.21 | –
288.15 K, 2000 kPa | 1294.02 | –
288.15 K, 4000 kPa | 1294.88 | –
288.15 K, 6000 kPa | 1295.72 | –
288.15 K, 8000 kPa | 1296.59 | –
288.15 K, 10000 kPa | 1297.45 | –
288.15 K, 12000 kPa | 1298.29 | –
288.15 K, 14000 kPa | 1299.08 | –
288.15 K, 20000 kPa | 1301.58 | –
288.15 K, 30000 kPa | 1305.62 | –
288.15 K, 40000 kPa | 1309.54 | –
288.15 K, 50000 kPa | 1313.39 | –
288.15 K, 60000 kPa | 1317.17 | –
293.15 K, 100 kPa | 1289.36 | –
293.15 K, 2000 kPa | 1290.17 | –
293.15 K, 4000 kPa | 1291.05 | –
293.15 K, 6000 kPa | 1291.91 | –
293.15 K, 8000 kPa | 1292.79 | –
293.15 K, 10000 kPa | 1293.63 | –
293.15 K, 12000 kPa | 1294.48 | –
293.15 K, 14000 kPa | 1295.29 | –
293.15 K, 20000 kPa | 1297.8 | –
293.15 K, 30000 kPa | 1301.86 | –
293.15 K, 40000 kPa | 1305.84 | –
293.15 K, 50000 kPa | 1309.69 | –
293.15 K, 60000 kPa | 1313.49 | –
293.75 K, 6300 kPa | – | 46.1
293.75 K, 8200 kPa | – | 47.5
293.75 K, 10100 kPa | – | 48.4
293.75 K, 12400 kPa | – | 49.3
293.85 K, 100 kPa | – | 43.4
293.85 K, 700 kPa | – | 43.7
293.85 K, 1700 kPa | – | 44.1
293.85 K, 2700 kPa | – | 44.4
293.85 K, 4200 kPa | – | 44.9
293.85 K, 14500 kPa | – | 49.7
298.15 K, 100 kPa | 1285.51 | –
298.15 K, 2000 kPa | 1286.33 | –
298.15 K, 4000 kPa | 1287.22 | –
298.15 K, 6000 kPa | 1288.13 | –
298.15 K, 8000 kPa | 1289.02 | –
298.15 K, 10000 kPa | 1289.83 | –
298.15 K, 12000 kPa | 1290.7 | –
298.15 K, 14000 kPa | 1291.53 | –
298.15 K, 20000 kPa | 1294.05 | –
298.15 K, 30000 kPa | 1298.17 | –
298.15 K, 40000 kPa | 1302.18 | –
298.15 K, 50000 kPa | 1306.09 | –
298.15 K, 60000 kPa | 1309.95 | –
303.15 K, 100 kPa | 1281.74 | –
303.15 K, 2000 kPa | 1282.57 | –
303.15 K, 4000 kPa | 1283.44 | –
303.15 K, 6000 kPa | 1284.35 | –
303.15 K, 8000 kPa | 1285.26 | –
303.15 K, 10000 kPa | 1286.08 | –
303.15 K, 12000 kPa | 1287 | –
303.15 K, 14000 kPa | 1287.82 | –
303.15 K, 20000 kPa | 1290.4 | –
303.15 K, 30000 kPa | 1294.54 | –
303.15 K, 40000 kPa | 1298.58 | –
303.15 K, 50000 kPa | 1302.56 | –
303.15 K, 60000 kPa | 1306.43 | –
303.95 K, 10300 kPa | – | 34.2
304.05 K, 120 kPa | – | 30.9
304.05 K, 680 kPa | – | 31.1
304.05 K, 1730 kPa | – | 31.2
304.05 K, 2710 kPa | – | 31.4
304.05 K, 4300 kPa | – | 32.2
304.05 K, 6340 kPa | – | 32.6
304.05 K, 8250 kPa | – | 33.1
304.05 K, 12210 kPa | – | 34.3
304.05 K, 14300 kPa | – | 35.2
308.15 K, 100 kPa | 1277.93 | –
308.15 K, 2000 kPa | 1278.81 | –
308.15 K, 4000 kPa | 1279.69 | –
308.15 K, 6000 kPa | 1280.58 | –
308.15 K, 8000 kPa | 1281.46 | –
308.15 K, 10000 kPa | 1282.35 | –
308.15 K, 12000 kPa | 1283.22 | –
308.15 K, 14000 kPa | 1284.11 | –
308.15 K, 20000 kPa | 1286.68 | –
308.15 K, 30000 kPa | 1290.85 | –
308.15 K, 40000 kPa | 1294.96 | –
308.15 K, 50000 kPa | 1298.92 | –
308.15 K, 60000 kPa | 1302.82 | –
313.15 K, 100 kPa | 1274.17 | –
313.15 K, 2000 kPa | 1275.04 | –
313.15 K, 4000 kPa | 1275.93 | –
313.15 K, 6000 kPa | 1276.8 | –
313.15 K, 8000 kPa | 1277.73 | –
313.15 K, 10000 kPa | 1278.61 | –
313.15 K, 12000 kPa | 1279.51 | –
313.15 K, 14000 kPa | 1280.39 | –
313.15 K, 20000 kPa | 1283.04 | –
313.15 K, 30000 kPa | 1287.29 | –
313.15 K, 40000 kPa | 1291.42 | –
313.15 K, 50000 kPa | 1295.43 | –
313.15 K, 60000 kPa | 1299.37 | –
313.65 K, 10170 kPa | – | 25.7
313.65 K, 12290 kPa | – | 26
313.65 K, 14100 kPa | – | 26.2
313.75 K, 1760 kPa | – | 23.8
313.75 K, 2730 kPa | – | 24.1
313.75 K, 4350 kPa | – | 24.5
313.75 K, 6270 kPa | – | 24.9
313.75 K, 8230 kPa | – | 25.1
313.85 K, 100 kPa | – | 23.3
313.85 K, 700 kPa | – | 23.4
313.85 K, 10300 kPa | – | 25.6
318.15 K, 100 kPa | 1270.39 | –
318.15 K, 2000 kPa | 1271.3 | –
318.15 K, 4000 kPa | 1272.25 | –
318.15 K, 6000 kPa | 1273.14 | –
318.15 K, 8000 kPa | 1274.05 | –
318.15 K, 10000 kPa | 1274.96 | –
318.15 K, 12000 kPa | 1275.87 | –
318.15 K, 14000 kPa | 1276.72 | –
318.15 K, 20000 kPa | 1279.36 | –
318.15 K, 30000 kPa | 1283.7 | –
318.15 K, 40000 kPa | 1287.8 | –
318.15 K, 50000 kPa | 1291.92 | –
318.15 K, 60000 kPa | 1295.92 | –
323.15 K, 100 kPa | 1266.69 | –
323.15 K, 2000 kPa | 1267.58 | –
323.15 K, 4000 kPa | 1268.52 | –
323.15 K, 6000 kPa | 1269.45 | –
323.15 K, 8000 kPa | 1270.37 | –
323.15 K, 10000 kPa | 1271.28 | –
323.15 K, 12000 kPa | 1272.19 | –
323.15 K, 14000 kPa | 1273.08 | –
323.15 K, 20000 kPa | 1275.76 | –
323.15 K, 30000 kPa | 1280.1 | –
323.15 K, 40000 kPa | 1284.32 | –
323.15 K, 50000 kPa | 1288.41 | –
323.15 K, 60000 kPa | 1292.42 | –
323.65 K, 100 kPa | – | 18.4
323.65 K, 700 kPa | – | 18.6
323.65 K, 1700 kPa | – | 18.7
323.75 K, 1200 kPa | – | 18.5
323.75 K, 2300 kPa | – | 18.7
323.75 K, 4200 kPa | – | 18.9
323.75 K, 4500 kPa | – | 18.9
323.75 K, 6100 kPa | – | 19
323.75 K, 6600 kPa | – | 19.4
323.75 K, 8200 kPa | – | 19.3
323.75 K, 10200 kPa | – | 19.7
323.75 K, 12400 kPa | – | 19.9
323.75 K, 14300 kPa | – | 20.1
